Active and inactive are the calls of the source.
Key:
Pontederia vaginalis [1] = experiment: Pre-emergence herbicidal activity against Monochoria vaginalis assessed as bleaching of stem/leaf parts; format: functional, organism-based
Cyperus difformis [2] = experiment: Post-emergence herbicidal activity against Cyperus difformis assessed as bleaching of stem/leaf parts; format: functional, organism-based; note: test concentration or dose not given here
[3] = tested on: Schoenoplectiella juncoides; experiment: Pre-emergence herbicidal activity against Schoenoplectiella juncoides assessed as bleaching of stem/leaf parts; format: functional, organism-based
Rotala indica [4] = experiment: Pre-emergence herbicidal activity against Rotala indica at 2000 g a.i/ha measured after 14 days; format: functional, organism-based
Lindernia procumbens [5] = experiment: Pre-emergence herbicidal activity against Lindernia procumbens at 2000 g a.i/ha measured after 14 days; format: functional, organism-based
Eleocharis acicularis [6] = experiment: Post-emergence herbicidal activity against Eleocharis acicularis assessed as bleaching of stem/leaf parts; format: functional, organism-based; note: test concentration or dose not given here
Lindernia procumbens [7] = experiment: Pre-emergence herbicidal activity against Lindernia procumbens assessed as bleaching of stem/leaf parts; format: functional, organism-based
Rotala indica [8] = experiment: Pre-emergence herbicidal activity against Rotala indica assessed as bleaching of stem/leaf parts; format: functional, organism-based
Elatine triandra [9] = experiment: Post-emergence herbicidal activity against Elatine triandra assessed as bleaching of stem/leaf parts; format: functional, organism-based; note: test concentration or dose not given here
Ammannia multiflora [10] = experiment: Pre-emergence herbicidal activity against Ammannia multiflora at 2000 g a.i/ha measured after 14 days; format: functional, organism-based
Oryza sativa = experiment: Phytotoxicity against Oryza sativa cv. Koshihikari (rice) at 2000 g a.i/ha measured after 14 days; format: organism-based; conditions: in vivo, 336 h
Elatine triandra [11] = experiment: Pre-emergence herbicidal activity against Elatine triandra at 2000 g a.i/ha measured after 14 days; format: functional, organism-based
[12] = tested on: Schoenoplectiella juncoides; experiment: Pre-emergence herbicidal activity against Schoenoplectiella juncoides at 2000 g a.i/ha measured after 14 days; format: functional, organism-based
Ammannia multiflora [13] = experiment: Pre-emergence herbicidal activity against Ammannia multiflora assessed as bleaching of stem/leaf parts; format: functional, organism-based
Pontederia vaginalis [14] = experiment: Pre-emergence herbicidal activity against Monochoria vaginalis at 2000 g a.i/ha measured after 14 days; format: functional, organism-based
Ammannia multiflora [15] = experiment: Post-emergence herbicidal activity against Ammannia multiflora assessed as bleaching of stem/leaf parts; format: functional, organism-based; note: test concentration or dose not given here
Echinochloa oryzicola [16] = experiment: Pre-emergence herbicidal activity against Echinochloa oryzicola assessed as bleaching of stem/leaf parts; format: functional, organism-based
Lindernia procumbens [17] = experiment: Post-emergence herbicidal activity against Lindernia procumbens assessed as bleaching of stem/leaf parts; format: functional, organism-based; note: test concentration or dose not given here
Cyperus difformis [18] = experiment: Pre-emergence herbicidal activity against Cyperus difformis assessed as bleaching of stem/leaf parts; format: functional, organism-based
Pontederia vaginalis [19] = experiment: Post-emergence herbicidal activity against Monochoria vaginalis assessed as bleaching of stem/leaf parts; format: functional, organism-based; note: test concentration or dose not given here
Echinochloa oryzicola [20] = experiment: Pre-emergence herbicidal activity against Echinochloa oryzicola at 2000 g a.i/ha measured after 14 days; format: functional, organism-based
Elatine triandra [21] = experiment: Pre-emergence herbicidal activity against Elatine triandra assessed as bleaching of stem/leaf parts; format: functional, organism-based
[22] = tested on: Schoenoplectiella juncoides; experiment: Post-emergence herbicidal activity against Schoenoplectiella juncoides assessed as bleaching of stem/leaf parts; format: functional, organism-based; note: test concentration or dose not given here
Rotala indica [23] = experiment: Post-emergence herbicidal activity against Rotala indica assessed as bleaching of stem/leaf parts; format: functional, organism-based; note: test concentration or dose not given here
Eleocharis acicularis [24] = experiment: Pre-emergence herbicidal activity against Eleocharis acicularis at 2000 g a.i/ha measured after 14 days; format: functional, organism-based
Eleocharis acicularis [25] = experiment: Pre-emergence herbicidal activity against Eleocharis acicularis assessed as bleaching of stem/leaf parts; format: functional, organism-based
Echinochloa oryzicola [26] = experiment: Post-emergence herbicidal activity against Echinochloa oryzicola assessed as bleaching of stem/leaf parts; format: functional, organism-based; note: test concentration or dose not given here
Cyperus difformis [27] = experiment: Pre-emergence herbicidal activity against Cyperus difformis at 2000 g a.i/ha measured after 14 days; format: functional, organism-based

SMILES	Activity (Pontederia vaginalis [1])	Activity (Cyperus difformis [2])	Activity [3]	Activity (Rotala indica [4])	Activity (Lindernia procumbens [5])	Activity (Eleocharis acicularis [6])	Activity (Lindernia procumbens [7])	Activity (Rotala indica [8])	Activity (Elatine triandra [9])	Activity (Ammannia multiflora [10])	Activity (Oryza sativa)	Activity (Elatine triandra [11])	Activity [12]	Activity (Ammannia multiflora [13])	Activity (Pontederia vaginalis [14])	Activity (Ammannia multiflora [15])	Activity (Echinochloa oryzicola [16])	Activity (Lindernia procumbens [17])	Activity (Cyperus difformis [18])	Activity (Pontederia vaginalis [19])	further results
CCCN(CC)C(=O)c1cn(C)nc1OCc1cccc(C#N)c1	Active	Active	Active	inactive	inactive	Active	Active	Active	Active	inactive	Non-toxic	inactive	inactive	Active	inactive	Active	Active	Active	Active	Active	Activity (Echinochloa oryzicola [20]): inactive; Activity (Elatine triandra [21]): Active; Activity [22]: Active; Activity (Rotala indica [23]): Active; Activity (Eleocharis acicularis [24]): inactive; Activity (Eleocharis acicularis [25]): Active; Activity (Echinochloa oryzicola [26]): Active; Activity (Cyperus difformis [27]): inactive
CCCN(CC)C(=O)c1cn(C)nc1OCc1cccc(Cl)c1	Active	Active	Active	Active	Active	Active	Active	Active	Active	Active	Non-toxic	Active	Active	Active	Active	Active	Active	Active	Active	Active	Activity (Echinochloa oryzicola [20]): Active; Activity (Elatine triandra [21]): Active; Activity [22]: Active; Activity (Rotala indica [23]): Active; Activity (Eleocharis acicularis [24]): Active; Activity (Eleocharis acicularis [25]): Active; Activity (Echinochloa oryzicola [26]): Active; Activity (Cyperus difformis [27]): Active
CCCN(CC)C(=O)c1cn(C)nc1OCc1ccc(C)cc1	Active	Active	Active	inactive	inactive	Active	Active	Active	Active	inactive	Non-toxic	inactive	inactive	Active	inactive	Active	Active	Active	Active	Active	Activity (Echinochloa oryzicola [20]): inactive; Activity (Elatine triandra [21]): Active; Activity [22]: Active; Activity (Rotala indica [23]): Active; Activity (Eleocharis acicularis [24]): inactive; Activity (Eleocharis acicularis [25]): Active; Activity (Echinochloa oryzicola [26]): Active; Activity (Cyperus difformis [27]): inactive
CCCN(CC)C(=O)c1cn(C)nc1OCc1ccccc1	Active	Active	Active	Active	Active	Active	Active	Active	Active	Active	Non-toxic	Active	inactive	Active	Active	Active	Active	Active	Active	Active	Activity (Echinochloa oryzicola [20]): Active; Activity (Elatine triandra [21]): Active; Activity [22]: Active; Activity (Rotala indica [23]): Active; Activity (Eleocharis acicularis [24]): Active; Activity (Eleocharis acicularis [25]): Active; Activity (Echinochloa oryzicola [26]): Active; Activity (Cyperus difformis [27]): Active
CCCN(CC)C(=O)c1cn(C)nc1OC(C)c1cccc(Br)c1 (stereo not given)	Active	Active	Active	inactive	inactive	Active	Active	Active	Active	inactive	Non-toxic	inactive	inactive	Active	inactive	Active	Active	Active	Active	Active	Activity (Echinochloa oryzicola [20]): inactive; Activity (Elatine triandra [21]): Active; Activity [22]: Active; Activity (Rotala indica [23]): Active; Activity (Eleocharis acicularis [24]): inactive; Activity (Eleocharis acicularis [25]): Active; Activity (Echinochloa oryzicola [26]): Active; Activity (Cyperus difformis [27]): inactive
